Data published in US20260184742A1, “PEPTIDES” (CAROCELL BIO LIMITED, priority 2022, published 2026).
Read-outs that look alike come from different tables or passages of the source. Where no end group is shown, it is not given here.

Tests used:
[1] = test system: human TNFα in activated M1-macrophages (THP1-derived, LPS-activated); assay: In vitro anti-inflammatory activity (ELISA), TNFα as marker; assay type: cell-based; settings: compared with T0, 100 ng/mL
Procedure: The anti-inflammatory response of each free peptide and each peptide-polymer formulation was determined using TNFα as a marker. The anti-inflammatory bioactivity was assessed using enzyme-linked immunosorbent assay (ELISA) for quantitative detection of human TNFα in activated M1-macrophages. THP1 human monocytes were differentiated into macrophages (M0), which were then activated (overnight) with lipopolysaccharide (LPS) into M1-macrophages. LPS prompts the abundant production of many pro-inflammatory cytokines from macrophages, including TNF-α, which actively contributes to the inflammatory response. At the T0 and T4 (after 4 weeks storage at RT or 4° C.) time points, each JEL peptide and each JEL-polymer formulation was incubated in previously LPS-activated M1-macrophages for 24 h at 37° C. After incubation, supernatants were collected, centrifuged and stored at −80° C. in readiness for the enzyme-linked immunosorbent assay (ELISA). Each supernatant sample was defrosted and the ELISA assay undertaken according to the Invitrogen protocol. FIGS. 1-4 show the concentrations of human TNFα detected by ELISA after incubation with each free and polymer loaded peptide at a concentration of 100 ng/mL.

[2] = test system: HLA (human leucocyte antigen) mismatched GvHD model; assay: Skimune skin explant assay, HLA mismatched GvHD model; assay type: cell-based; settings: LNP formulation of the compound, added throughout the mixed lymphocyte reaction and spiked into the skin explant
[3] = test system: AD phenotype of skin biopsies (white space; Filaggrin, Involucrin, TSLP); assay: Atopic Dermatitis (AD) model in skin biopsies; assay type: cell-based; settings: for phenotype: donor ALC1373, 0.1 and 1.0 μg/ml, appeared an improvement above Clobetasol; for phenotype ("white space") analysis: 0.1, 1.0 and 2.5 μg/ml, not as apparent as Clobetasol
Procedure: The AD phenotype was assessed by measuring the intensity of the “white space” within the biopsies—this was increased from 20% in the media alone control to 80% on AD induction and reduced with Clobetasol (a topical corticosteroid) to 40%. All concentrations of the compound (JEL0305, JEL2603, JEL1103 or JEL0802) reduced the white space by between 50 and 60% as a similar trend to Clobetasol. Three further donors (ALC1373, ALC1366 and ALC1365) were used to develop atopic dermatitis after treatment with activated PBMC and a cytokine cocktail model and assessed phenotypically as well as by biomarker (Filaggrin, Involucrin and TSLP) by immunohistochemistry. For 2 donors (ALC1366 and ALC1365) Filaggrin and Involucrin were reduced compared non-AD induced skin biopsies in media alone. This is the expected response for AD induction. In the presence of the control drug Clobetasol the expression of Filaggrin and Involucrin was increased due to the drug reversing the AD phenotype. […] But this was not as apparent as Clobetasol more than likely due to the lipid formulation causing an upregulation of cytokines. […] Filaggrin results were inconclusive.

[4] = test system: pro-inflammatory cytokines including Th1 (IFNγ, TNFα, IL-1β) and Th2 cytokines (IL-13 and IL-4)
[5] = test system: pro-inflammatory cytokines including Th1 (IFNγ, TNFα, IL-1β) and Th2 cytokines (IL-13 and IL-4); assay: Cytokine levels from the Skimune assays; settings: current concentrations and lipid formulation; GvHD type assays
[6] = after 4 weeks storage at room temperature (RT)
[7] = donors ALC1366 and ALC1365, compound at 0.1, 1.0 and 2.5 μg/ml

| Compound | anti-inflammatory activity (human TNFα detected by ELISA) after storage ([1]; after 4 weeks storage at 4° C.) | anti-inflammatory activity (human TNFα detected by ELISA) after storage [1, 6] | Graft versus Host reaction grade [2] | inhibition of the Graft versus Host response [2] | phenotype [3] | phenotype ("white space") analysis ([3]; donors ALC1366 and ALC1365) | pro-inflammatory cytokines [4] | pro-inflammatory cytokines [5] | also measured |
| --- | --- | --- | --- | --- | --- | --- | --- | --- | --- |
| SRALKIFLATRKDRSPWH [JEL2603] | some diminution of anti-inflammatory activity | activity is lost | Grade III | no inhibition | some improvement of the phenotype | improved and reversal of damage | significant increases | – | – |
| SRALLIFQKI [JEL0802, Ser-Arg-Ala-Leu-Leu-Ile-Phe-Gln-Lys-Ile] | – | – | – | – | – | – | – | significant increases | – |
| VSRATRIFKLSQLRGQCA [JEL0305, Val-Ser-Arg-Ala-Thr-Arg-Ile-Phe-Lys-Leu-Ser-Gln-Leu-Arg-Gly-Gln-Cys-Ala] | – | – | – | – | – | – | – | significant increases | – |
| C[C@H]1C[C@H]2[C@@H]3CCC4=CC(=O)C=C[C@]4(C)[C@@]3(F)[C@@H](O)C[C@]2(C)[C@@]1(O)C(=O)CCl [Clobetasol, reference compound] | – | – | – | – | – | – | – | – | intensity of the "white space" within the biopsies ([3]; 20% in media alone control, 80% on AD induction): 40%; Filaggrin expression by immunohistochemistry [3, 7]: increased; Involucrin expression by immunohistochemistry [3, 7]: increased |
| HKSRARLIFHEGPCGVRR [JEL1103] | maintained | maintained | Grade III | no inhibition | some improvement of the phenotype | improved and reversal of damage | significant increases | – | – |
